Series [1] can be described thus: Fluorescence spectrum measurement of triazapentalenes (Example 3). Format: physicochemical. The note with it: for λem (emission wavelength): excitation at absorption maximum; for φr (relative fluorescence quantum yield): dichloromethane, standard 9,10-bis(phenyl ethynyl)anthracene (0.96). The method, then: The fluorescence spectrum of various triazapentalenes that have been synthesized by the same method as described in Example 1 and Example 2 was measured. A method for measurement will be specifically described below.
As triazapentalenes, compounds with the substituent group being a phenyl group, methoxyphenyl group, 2-cyanophenyl group, methoxycarbonylphenyl group, methyl ester group, diphenyl group, 3-cyanophenyl group, and nitrophenyl group were used.
(§1) Each of the above compounds was made into solution with concentration shown in Table 2 using dichloromethane as a solvent. […] The concentration of a sample solution was adjusted such that the intensity (Abs.) of absorption maximum wavelength was 0.100±0.005, and using a spectrophotometer (manufactured by Hitachi High-Technologies Corporation, U-3500), each fluorescence spectrum was measured with excitation wavelength (λex)=326 nm to 412 nm that was equal to absorption maximum wavelength. The fluorescence quantum yield was determined using 9,10-bis(phenyl ethynyl)anthracene (absolute fluorescence quantum yield=0.96) as a standard substance.
In FIG. 1 and Table 2, with regard to a substituent group, Ph represents a phenyl group, Me represents a methyl group, CO2Me represents a methyl ester group, OMe represents a methylalkoxy group, and CN represents a cyano group. Further, in Table λex represents excitation wavelength, ε represents a molar extinction coefficient, λem represents emission wavelength, φr represents a relative fluorescence quantum yield using 9,10-bis(phenyl ethynyl)anthracene (absolute fluorescence quantum yield=0.96) as a standard, and “−” represents no measurement data available.

The nature of series [2]: Maximum absorption wavelength, maximum fluorescence wavelength and fluorescence quantum yield (Example 6). The note with it: same manner as Example 3. Format: physicochemical. The protocol:
as §1
For each of the compounds shown in Table 3, the maximum absorption wavelength (λabs^max), maximum fluorescence wavelength (λem^max), and fluorescence quantum yield (ΦF) were measured. Further, the Hammett constant (σp) of substituent group was together described in Table 3. In Table 3, “-” represents no measurement data available. The measurement of the absorption wavelength, fluorescence wavelength, and fluorescence quantum yield was carried out in the same manner as described in Example 3. Here, a method of synthesizing compounds of 1o^a and 1r will be later described in Example 8. Compounds of 1e, 1n, 1f, 1g, 1l, 1k, 1h, and 1m, which are shown in Table 3 were synthesized by the method and condition described in Examples 1 to 2. Further, the compound 1a shown in Table 3 was synthesized under the under the same condition as in Example 1 and Example 2 except that a CO2CH3 part in the chemical formula 13 of the reaction formula (5) was replaced with a hydrogen atom. Thereby, the compound 1a having a triazapentalene backbone whose R^5 position was bound with the hydrogen atom was obtained.

The conditions of series [3]: substituent at R^5; cited from earlier work.
Series [4] is described as follows: Solvatochromic fluorescence of triazapentalenes in various solvents (Example 4). Format: physicochemical. As to conditions: dichloromethane, acetonitrile, benzene. The protocol: The fluorescence of a triazapentalene compound whose substituent group was -PhCN was measured in various solvents. A method for measurement will be specifically described below.
As solvents, dichloromethane (manufactured by Junsei Chemical Co., Ltd.), acetonitrile (manufactured by Kanto Chemical Co., Inc.), benzene (manufactured by Nacalai Tesque, Inc.), and acetone (manufactured by Nacalai Tesque, Inc.) were individually used.
Each of the triazapentalene compound whose substituent group was -PhCN was dissolved in the above solvent. With regard to the concentration of each solution, the concentration of solution with dichloromethane being used as the solvent was 5.81×10^−6 mol/L, the concentration of solution with acetonitrile being used as the solvent was 3.65×10^−6 mol/L, the concentration of solution with benzene being used as the solvent was 5.43×10^−6 mol/L, and the concentration of solution with acetone being used as the solvent was 6.63×10^−6 mol/L. Using a […] (manufactured by Hitachi High-Technologies Corporation, F-4500), the ultraviolet absorption spectrum was measured, and the absorption maximum wavelength (λmax) was determined to be 382 nm. […] The fluorescence quantum yield was determined using 9,10-bis(phenyl ethynyl)anthracene (absolute fluorescence quantum yield=0.96) as a standard substance.

Series [5] can be described thus: Fluorescence of disubstituted product (Example 7). As to conditions: CH2Cl2 solution, excitation wavelength 370 nm. The class given is physicochemical. From the text: Disubstituted products other than the disubstituted product represented by the chemical formula 20 are synthesized by the same method as the disubstituted product represented by the chemical formula 20. The numerical values in Table 4 and Table 5 were obtained in CH2Cl2 solution under a condition of an excitation wavelength of 370 nm

For series [6] the following is noted: standard substance; cited from earlier work.

In the case of `COc1ccc(-c2cn3ccc[n+]3n2C)cc1` [Compound 1n], in series [1] (dichloromethane solution), the “ε (molar extinction coefficient)” value is given as 5.70 10^3 cm − M^−1; the “λex (excitation wavelength, equal to absorption maximum wavelength λmax)” value (shortened to “λex”) was 330 nm; the “λem (emission wavelength)” value is listed as 413 nm. Besides, the “φr (relative fluorescence quantum yield)” value in series [1] was found to be 6.2%. For the same molecule, in series [2], the “λabs^max (maximum absorption wavelength)” value is 330 nm, the “λem^max (maximum fluorescence wavelength)” value (“λem^max” for short) stood at 413 nm and the “φF (fluorescence quantum yield)” value is 0.062. The “Hammett σP of substituent group” value in series [3] was −0.28.

As for `Cn1c(-c2ccc([N+](=O)[O-])cc2)cn2ccc[n+]12` [Compound 1m], in series [1] (dichloromethane solution), the “λex” value was 412 nm and the “λem (emission wavelength)” value was 556 nm. Besides, in series [1], the “φr (relative fluorescence quantum yield)” value is 16%. Further, in series [2], the “λabs^max (maximum absorption wavelength)” value is 412 nm, the “λem^max” value amounted to 556 nm and the “φF (fluorescence quantum yield)” value is recorded as 0.16. For the same molecule, the “Hammett σP of substituent group” value in series [3] is 0.81.

Take `Cn1c(-c2cccc(C#N)c2)cn2ccc[n+]12`: in series [1] (dichloromethane solution), the “λex” value was 330 nm and the “λem (emission wavelength)” value was found to be 481 nm.

For `COC(=O)c1ccc(-c2cn3ccc[n+]3n2C)cc1` [Compound 1k], in series [1] (dichloromethane solution), the “ε (molar extinction coefficient)” value is on record as 3.02 10^3 cm − M^−1; the “λex” value turned out to be 376 nm; the “λem (emission wavelength)” value is listed as 510 nm. Also, the “φr (relative fluorescence quantum yield)” value in series [1] stood at 51%. Besides, in series [2], the “λabs^max (maximum absorption wavelength)” value worked out at 376 nm, the “λem^max” value was found to be 510 nm and the “φF (fluorescence quantum yield)” value amounted to 0.51. In addition, the “Hammett σP of substituent group” value in series [3] is 0.47.

As for `Cn1c(-c2ccc(C#N)cc2)cn2ccc[n+]12` [Compound 1h], in series [1] (dichloromethane solution), the “fluorescence intensity (FIG. 1)” value was “stronger fluorescence intensity”; the “ε (molar extinction coefficient)” value is given as 2.85 10^3 cm − M^−1; the “λex” value was found to be 381 nm; the “λem (emission wavelength)” value is on record as 509 nm. For the same molecule, the “φr (relative fluorescence quantum yield)” value in series [1] came to 18%. Moreover, in series [4] (acetone solutions), the “absorption maximum wavelength (λmax)” value is 382 nm. Moreover, the “solvatochromism of fluorescence spectrum (FIG. 2)” value in series [4] (acetone, λex 382 nm) is “significant solvatochromism was observed”. Also, in series [2], the “λabs^max (maximum absorption wavelength)” value was 381 nm, the “λem^max” value was 509 nm and the “φF (fluorescence quantum yield)” value is 0.18. In addition, in series [5], the “λabs (absorption wavelength)” value is given as 381 nm, the “λem (fluorescence wavelength)” value was 509 nm and the “φF (quantum yield)” value amounted to 0.18. In series [3], the “Hammett σP of substituent group” value was 0.71.

Turning to `Cn1c(-c2ccccc2)cn2ccc[n+]12` [Compound 1f], in series [1] (dichloromethane solution), the “ε (molar extinction coefficient)” value is on record as 3.82 10^3 cm − M^−1; the “λex” value is 326 nm; the “λem (emission wavelength)” value was determined as 419 nm. In series [1], the “φr (relative fluorescence quantum yield)” value worked out at 3.0%. In addition, the “Hammett σP of substituent group” value in series [3] is listed as 0.00.

On to `C(#Cc1c2ccccc2c(C#Cc2ccccc2)c2ccccc12)c1ccccc1` [9,10-bis(phenylethynyl)anthracene], for which the “absolute fluorescence quantum yield” value in series [6] is recorded as 0.96.

The values are drawn from patent US9222016B2, “Compound having fluorescent chromophore, ion concentration sensor including compound, reagent including compound, reagent kit provided with reagent, precursor of compound, and method for synthesizing compound” (National University Corporation Hokkaido University, priority 2011, dated 2015).
